Assay results as given in patent publication US20210330611A1, “THERAPY FOR NEUROLOGICAL DISEASES/DISORDERS” (priority 2020, published 2021).
Counter-ions that a name gives are not always drawn. Like-named read-outs stand apart in the source and are kept apart here.

Assays:
[1] = tested on: LPS-induced microglia activation; test: Image-based assay of LPS-induced microglia activation (HTS and dose response); assay type: cell-based, rat; settings: primary microglia HTS, LPS stimulation; for inhibition at 10 µM: Rattus norvegicus, Microglia, 48 h, read-out: LPS % inhibition
primary rat microglia [2] = test: Cell toxicity (dead cells, size <150 μm2) in LPS assay; settings: primary microglia HTS, LPS stimulation
[3] = tested on: fibrin-induced microglia activation; test: Image-based assay of fibrin-induced microglia activation (HTS and dose response); assay type: cell-based, rat; settings: primary microglia HTS, fibrin stimulation; for inhibition at 10 µM: Rattus norvegicus, Microglia, read-out: Fibrin % inhibition
[4] = tested on: fibrin- and LPS-induced microglia activation; test: cells; assay type: cell-based, rat; settings: quadrant by fibrin and LPS inhibition in HTS of 1907 compounds
primary rat microglia [5] = test: Cell toxicity (dead cells, size <150 μm2) in coated fibrin (cFib) assay; settings: primary microglia HTS, fibrin stimulation;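 further: share of dead cells sized under 150 µm2 at 10 µM in fibrin-stimulated microglia HTS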
[6] = activation = cell size >800 μm2
[7] = increased cell size (>800 μm^2) as marker of activation
[8] = decreased size (<150 μm^2) as marker of toxicity

SMILES	inhibition at 10 µM [1, 6]	LPS % cell toxicity (primary rat microglia [2]; toxicity = cell size <150 μm2)	inhibition at 10 µM [3, 6]	Quadrant (FIG. 5b) [4]	Fibrin % cell toxicity (primary rat microglia [5]; toxicity = cell size <150 μm2)	LPS % inhibition [1, 6]	Fibrin % inhibition [3, 6]	inhibition at 10 µM [1, 7]	LPS % cell toxicity (primary rat microglia [2]; [8])	inhibition at 10 µM [3, 7]	Fibrin % cell toxicity (primary rat microglia [5]; [8])	LPS % inhibition [1, 7]	Fibrin % inhibition [3, 7]
C[N+](C)(C)C[C@H](O)CC(=O)[O-] [Levocarnitine]	15%	0%	8%	Q4	1%								
C[C@H]1COc2c(N3CCN(C)CC3)c(F)cc3c(=O)c(C(=O)O)cn1c23 [Levofloxacin]	31%	0%	12%	Q4	1%								
C[C@@H]1CC(=O)NN=C1c1ccc(NN=C(C#N)C#N)cc1 [Levosimendan]	42%	0%	46%	Q4	1%								
CCN1CCC[C@H]1CNC(=O)c1cc(S(N)(=O)=O)ccc1OC [Levosulpiride]	18%	0%	-36%	Q4	1%								
CC#CCn1c(N2CCC[C@@H](N)C2)nc2c1c(=O)n(Cc1nc(C)c3ccccc3n1)c(=O)n2C [Linagliptin]	14%	1%	2%	Q4	1%								
CCC[C@@H]1C[C@@H](C(=O)N[C@@H]([C@H]2O[C@H](SC)[C@H](O)[C@@H](O)[C@H]2O)[C@@H](C)O)N(C)C1 [Lincomycin Hydrochloride]		0%		Q4	1%	14%	−4%						
CCC[C@@H]1C[C@@H](C(=O)N[C@@H]([C@H]2O[C@H](SC)[C@H](O)[C@@H](O)[C@H]2O)[C@@H](C)O)N(C)C1 [Lincomycin]		0%		Q4	1%	−5%	−29%						
NC(=O)CCCCC1CCSS1 (stereo not drawn) [Lipoamide]	8%	0%	-18%	Q4	0%								
CN1[C@@H](CC(=O)c2ccccc2)CCC[C@H]1C[C@H](O)c1ccccc1 [Lobeline]	-5%	0%	-38%	Q4	1%								
CCOC(=O)Nc1nc2ccccc2[nH]1 [Lobendazole]	20%	0%	-4%	Q4	0%								
COc1ccc(CN2CCN(C(c3ccc(F)cc3)c3ccc(F)cc3)CC2)c(OC)c1OC [Lomerizine, Lomerizine Dihydrochloride]		0%		Q4	1%	8%	−5%						
O=C(O)c1nn(Cc2ccc(Cl)cc2Cl)c2ccccc12 [Lonidamine]	19%	0%	7%	Q4	1%								
O=C1Nc2ccc(Cl)cc2C(c2ccccc2Cl)=NC1O (stereo not drawn) [Lorazepam]	-1%	0%	-13%	Q4	1%								
CCCCCN(CCCCC)C(=O)C(CCC(=O)O)NC(=O)c1ccc(Cl)c(Cl)c1 (stereo not drawn) [Lorglumide Sodium]	13%	1%	-29%	Q4	1%								
CN1C(C(=O)Nc2ccccn2)=C(O)c2sc(Cl)cc2S1(=O)=O [Lornoxicam]				Q4				10%	1%	22%	0%		
CN1CCN(C2=Nc3ccccc3Oc3ccc(Cl)cc32)CC1 [Loxapine]				Q4				9%	0%	-41%	0%		
CC(C(=O)O)c1ccc(CC2CCCC2=O)cc1 (stereo not drawn) [Loxoprofen]				Q4				10%	0%	-19%	1%		
O=C(NC(=O)c1c(F)cccc1F)Nc1cc(Cl)c(OC(F)(F)C(F)C(F)(F)F)cc1Cl (stereo not drawn) [Lufenuron]				Q4				13%	0%	15%	1%		
Cc1ccc(Nc2c(F)cccc2Cl)c(CC(=O)O)c1 [Lumiracoxib]				Q4				18%	0%	14%	1%		
NCc1ccc(S(N)(=O)=O)cc1 [Mafenide]				Q4				-3%	0%	10%	1%		
CCOC(=O)CC(SP(=S)(OC)OC)C(=O)OCC (stereo not drawn) [Malathion]				Q4				8%	0%	-8%	0%		
Cc1ncc(COP(=O)([O-])[O-])c(CN(CCN(CC(=O)[O-])Cc2c(COP(=O)([O-])[O-])cnc(C)c2[O-])CC(=O)[O-])c1[O-].[H+].[H+].[H+].[Mn+2].[Na+].[Na+].[Na+] [Mangafodipir Trisodium]				Q4					0%		1%	11%	1%
COC(=O)C1=C(C)NC(C)=C(C(=O)OCCN2CCN(C(c3ccccc3)c3ccccc3)CC2)C1c1cccc([N+](=O)[O-])c1 (stereo not drawn) [Manidipine Hydrochloride]				Q4				12%	1%	-43%	1%		
OC[C@@H](O)[C@@H](O)[C@H](O)[C@H](O)CO [Mannitol]				Q4				0%	0%	5%	1%		
CCN(CCCCOC(=O)c1ccc(OC)c(OC)c1)C(C)Cc1ccc(OC)cc1 (stereo not drawn) [Mebeverine]				Q4				7%	0%	-11%	0%		
CN1CCc2c(c3ccccc3n2Cc2ccccc2)C1.CN1CCc2c(c3ccccc3n2Cc2ccccc2)C1.O=S(=O)(O)c1cccc2c(S(=O)(=O)O)cccc12 [Mebhydrolin Naphthalenesulfonate]				Q4					0%		1%	17%	4%
Cc1cccc(CN2CCN(C(c3ccccc3)c3ccc(Cl)cc3)CC2)c1 (stereo not drawn) [Meclizine]				Q4				12%	0%	-33%	0%		
